Data taken from patent US20090226368A1, “Androgen-Receptor (AR) Ligands for Use in the Treatment and Diagnosis of AR-Related Pathologies” (priority 2005, published 2009).

Experiments:
human AR recombinant = biological target: T1, human AR recombinant (Homo sapiens, UniProt P10275); assay: Relative Binding Affinity (RBA) assay, competitive binding with [3H]R1881; settings: against [3H]R1881; R1881 standard = 100 by definition
T1 construct: purchased Pan-Vera
T1 sequence (P10275 1-920): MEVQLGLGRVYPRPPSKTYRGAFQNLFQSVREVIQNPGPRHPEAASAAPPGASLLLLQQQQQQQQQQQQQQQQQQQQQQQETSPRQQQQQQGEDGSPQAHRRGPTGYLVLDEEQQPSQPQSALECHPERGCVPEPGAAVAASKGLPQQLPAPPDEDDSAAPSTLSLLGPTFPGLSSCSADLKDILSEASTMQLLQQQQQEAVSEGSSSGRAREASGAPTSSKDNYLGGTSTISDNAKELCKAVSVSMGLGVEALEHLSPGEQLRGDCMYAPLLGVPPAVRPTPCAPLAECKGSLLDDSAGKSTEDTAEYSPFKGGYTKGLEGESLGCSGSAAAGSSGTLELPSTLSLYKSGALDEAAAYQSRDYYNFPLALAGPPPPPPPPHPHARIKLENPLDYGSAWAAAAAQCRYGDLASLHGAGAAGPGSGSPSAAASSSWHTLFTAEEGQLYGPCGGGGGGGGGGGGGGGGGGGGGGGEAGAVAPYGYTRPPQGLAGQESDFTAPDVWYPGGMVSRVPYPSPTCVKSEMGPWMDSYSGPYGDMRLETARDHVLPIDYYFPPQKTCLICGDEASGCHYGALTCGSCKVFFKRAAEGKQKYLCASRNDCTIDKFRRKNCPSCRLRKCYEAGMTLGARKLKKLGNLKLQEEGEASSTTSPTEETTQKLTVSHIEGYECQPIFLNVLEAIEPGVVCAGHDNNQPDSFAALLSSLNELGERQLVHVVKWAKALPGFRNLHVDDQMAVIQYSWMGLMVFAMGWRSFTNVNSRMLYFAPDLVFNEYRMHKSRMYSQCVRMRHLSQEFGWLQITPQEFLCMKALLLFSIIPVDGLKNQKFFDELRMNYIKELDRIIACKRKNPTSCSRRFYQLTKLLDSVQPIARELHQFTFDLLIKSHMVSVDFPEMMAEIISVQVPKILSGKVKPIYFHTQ
Description: In order to measure the affinity of the compounds to the A, the compounds of the general Formula I, referred herein also as the AR ligands were tested in RBA (Relative Binding Affinity) assay, which is a competitive binding assay with ^3H—R1881, a high affinity AR binding ligand.
RBA of androgens were measured against [^3H]R1881 in human AR recombinant (Pan-Vera). RBA values of the standards are 100 by definition (Brandes S. J., et al., Molecular Pharmacology; 1987; 32:391-400).

[1] = Blood stability test, incubation in blood at 37° C.; type: in vitro ADME, human
Description: Blood was taken in EDTA tubes in order to prevent coagulation. 550 μl of ^18F-labeled (R)-Compound 3 was added to 1 ml of blood, and put in a rotating incubator at 37° C. The incubation times were 0, 30, 60 and 90 minutes. After the incubation, the blood was centrifuged for 5 minutes at 3000 rpm. The plasma was centrifuged again for 5 minutes at 10600 g and the pellet was discarded. 400 μl of the resulting supernatant was added to 800 μl of 30% THF/CH3CN, vortexed for 30 seconds and centrifuged for 5 minute at 10600 g. The supernatant was filtered through 0.45 μm filter and injected to HPLC column. The column was eluted with a mixture of acetate buffer (pH 3.8) and acetonitrile (35:65) at flow rate of 3 ml/min. The HPLC eluent was monitored sequentially for UV absorbance at 254 nm and radioactivity. Each sample was done in duplicate.
The same procedure was done with the ^11C-labeled (R)-Compound 3 after incubation of 0, 15, 30 and 45 minutes.
Blood stability, which was measured by phosphor-imager, was done in the same procedure. The filtered samples were loaded on reverse phase TLC plates and exposed to the phosphor-imager plates for 1 hour.
In the case of (R)-Compound 2, the incubation in the human blood sample was 0, 15, 30 and 45 minutes. The percent of extraction of the compound was around 40%.

LNCap cell lines = assay: Antagonist test, PSA secretion measured by ELISA; type: cell-based; settings: 48 and 72 hours; for PSA secretion in comparison to the control: given alone, testosterone 100 nM, compound 0.2, 0.5 and 1 μM
Description: PSA (Prostate Specific Antigen) is a secreted protein which is regulated by AR and is clinically used to detect prostate cancer in humans. LNCap cell lines were seeded in 24 wells (10^5 cells/well) in 10% FCS RPMI supplemented with sodium-pyruvate, pen/strep, L-glutamine, testosterone and insulin and grown for 24 hours. Then, the cells were washed 3 times with cold PBS and incubated in 10% FCS red-phenol-free RPMI. Testosterone (100 nM), ^18F-labeled (R)-Compound 3 (0.2, 0.5 and 1 μM) or both were added to the wells. Ethanol, which was used as the solvent of the testosterone and ^18F-labeled (R)-Compound 3, was added to the control wells in the same concentration.
At 48 and 72 hours, a sample of the medium was taken and the PSA levels were measured by ELISA.

[2] = blood, 37° C., incubation 0, 30, 60 and 90 minutes, HPLC

Row | SMILES | RBA (%) (human AR recombinant) | other results
1 | CC(C)(O)C(=O)Nc1ccc(F)c(C(F)(F)F)c1 [(R)-F-2, N-(4-fluoro-3-(trifluoromethyl)phenyl)-2-hydroxy-2-methylpropanamide] | 0.027% | 
2 | CN(C)C[C@@](C)(O)C(=O)Nc1ccc([N+](=O)[O-])c(C(F)(F)F)c1 [(R)-Compound 2, (R)-3-Dimethyl-2-hydroxy-2-methyl-N-(4-nitro-3-trifluoromethyl-phenyl)-propionamide] | 0.036% | percent of extraction ([1]; human blood sample, incubation 0, 15, 30 and 45 minutes): around 40%; formation of metabolites ([1]; human blood sample, incubation 0, 15, 30 and 45 minutes, phosphor-imager): no metabolites were evident
3 | C[C@](O)(CBr)C(=O)Nc1ccc(F)c(C(F)(F)F)c1 [(R)-F-1, (R)-3-Bromo-N-(4-fluoro-3-(trifluoromethyl)phenyl)-2-hydroxy-2-methyl-propanamide] | 0.057% | 
4 | CN(C)C[C@@](C)(O)C(=O)Nc1ccc(C#N)c(C(F)(F)F)c1 [(R)-Compound 1, (R)-3-Dimethyl-N-(4-cyano-3-trifluoromethyl-phenyl)-2-hydroxy-2-methyl-propionamide] | 0.030% | 
5 | CN(C)C[C@@](C)(O)C(=O)Nc1ccc([18F])c(C(F)(F)F)c1 [^18F-labeled (R)-Compound 3] |  | PSA secretion in comparison to the control (LNCap cell lines): reduced the PSA secretion; testosterone-induced secretion of PSA (LNCap cell lines; together with testosterone 100 nM, 0.2, 0.5 and 1 μM, P<0.01): significantly reduced the testosterone-induced secretion of PSA; metabolites in blood [1, 2]: no metabolites were evident; percent of extraction [1, 2]: 39-43%
6 | C[C@]12CC[C@H]3[C@@H](CCC4=CC(=O)CC[C@@]43C)[C@@H]1CC[C@@H]2O [Testosterone, reference compound] |  | PSA secretion in comparison to the control (LNCap cell lines): increased PSA secretion
7 | CC(C)(O)C(=O)Nc1ccc([N+](=O)[O-])c(C(F)(F)F)c1 [Hydroxyflutamide] | 0.027% | 
8 | CN(C)C[C@@](C)(O)C(=O)Nc1ccc(F)c(C(F)(F)F)c1 [(R)-Compound 3, (R)-3-Dimethyl-N-(4-fluoro-3-(trifluoromethyl)phenyl)-2-hydroxy-2-methyl-propanamide] | 0.029% | 
9 | C[C@]1(O)CC[C@H]2[C@@H]3CCC4=CC(=O)CCC4=C3C=C[C@@]21C [Compound R1881] | 100% | 
